The conditions of this data set: Crystal; visual observation.

Normal melting temperature data for 1 compound are collected here from the NIST ThermoML archive (doi:10.1021/acs.jced.6b00279).

SMILES strings stand for the structures. ± gives the expanded uncertainty stated by the source.

Turning to `CCCC[n+]1ccccc1.[Br-]` [1-butylpyridinium bromide], the Normal melting temperature was 105.00 ± 2 °C.
